Test results taken from patent publication US20220169598A1, “HALOGENATED PHENYLSULFONAMIDE HYDROXAMIC ACID COMPOUNDS, COMPOSITIONS AND USES THEREOF AS SELECTIVE HDAC6 INHIBITORS” (2681603 ONTARIO INC., priority 2019, published 2022).

What was measured:
[1] = Kinetic solubility by analytical HPLC; type: physicochemical; details: PBS with 5% (v/v) DMSO, aqueous with cosolvent or surfactant or cyclodextrin, kinetic from dmso stock; PBS + 5% DMSO; initial concentration 300 μM; read-out: Saturation Concentration
Method: The initial concentration of each exemplary compound was 300 μM.

HDAC1 = HDAC1 (Homo sapiens, UniProt Q13547); assay: in vitro activity-based HDAC assay; type: biochemical; details: human HDAC isoform panel, Table 1
Chain of HDAC1 (Q13547 whole entry, canonical isoform): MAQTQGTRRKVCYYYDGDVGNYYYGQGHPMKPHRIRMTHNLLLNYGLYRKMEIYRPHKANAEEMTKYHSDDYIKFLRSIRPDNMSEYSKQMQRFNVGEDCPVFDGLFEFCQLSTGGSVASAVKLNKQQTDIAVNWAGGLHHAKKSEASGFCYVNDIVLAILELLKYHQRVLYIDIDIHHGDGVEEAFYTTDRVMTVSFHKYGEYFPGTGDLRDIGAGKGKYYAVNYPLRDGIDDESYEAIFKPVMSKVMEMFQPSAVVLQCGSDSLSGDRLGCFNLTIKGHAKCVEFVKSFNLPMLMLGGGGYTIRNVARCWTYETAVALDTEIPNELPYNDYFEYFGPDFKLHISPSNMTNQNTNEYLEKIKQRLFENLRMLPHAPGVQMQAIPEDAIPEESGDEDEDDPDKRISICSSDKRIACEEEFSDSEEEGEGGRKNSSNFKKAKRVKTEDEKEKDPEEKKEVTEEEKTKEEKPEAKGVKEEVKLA

HDAC9 = HDAC9 (Homo sapiens, UniProt Q9UKV0); assay: in vitro activity-based HDAC assay; type: biochemical; details: human HDAC isoform panel, Table 1
Chain of HDAC9 (Q9UKV0 whole entry, canonical isoform): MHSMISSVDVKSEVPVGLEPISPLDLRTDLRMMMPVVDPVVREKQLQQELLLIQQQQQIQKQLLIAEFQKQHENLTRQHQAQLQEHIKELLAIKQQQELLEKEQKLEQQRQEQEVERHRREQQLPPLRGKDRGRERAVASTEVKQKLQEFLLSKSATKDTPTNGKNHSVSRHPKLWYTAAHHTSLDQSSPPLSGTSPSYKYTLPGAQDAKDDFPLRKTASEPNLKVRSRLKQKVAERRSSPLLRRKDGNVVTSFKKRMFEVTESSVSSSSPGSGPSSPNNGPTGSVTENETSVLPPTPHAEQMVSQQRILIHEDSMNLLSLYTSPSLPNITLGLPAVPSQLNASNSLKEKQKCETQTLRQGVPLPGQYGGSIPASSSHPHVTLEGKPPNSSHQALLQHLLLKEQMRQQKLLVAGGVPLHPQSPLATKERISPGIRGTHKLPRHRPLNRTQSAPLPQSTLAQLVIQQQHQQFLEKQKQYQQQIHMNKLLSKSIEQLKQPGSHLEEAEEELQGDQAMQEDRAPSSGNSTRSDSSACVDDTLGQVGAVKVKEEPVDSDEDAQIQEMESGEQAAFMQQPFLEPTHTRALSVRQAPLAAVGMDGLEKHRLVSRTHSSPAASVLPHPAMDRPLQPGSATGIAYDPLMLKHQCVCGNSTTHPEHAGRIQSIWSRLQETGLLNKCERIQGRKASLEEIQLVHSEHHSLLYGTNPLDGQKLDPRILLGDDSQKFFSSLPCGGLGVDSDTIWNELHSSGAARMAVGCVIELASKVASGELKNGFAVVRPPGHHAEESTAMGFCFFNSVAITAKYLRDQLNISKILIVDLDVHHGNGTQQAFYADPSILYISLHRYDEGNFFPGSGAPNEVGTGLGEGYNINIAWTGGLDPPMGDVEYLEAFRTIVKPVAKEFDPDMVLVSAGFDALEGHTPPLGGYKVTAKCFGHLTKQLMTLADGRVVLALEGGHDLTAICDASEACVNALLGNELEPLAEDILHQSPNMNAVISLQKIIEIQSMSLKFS

HDAC2 = HDAC2 (Homo sapiens, UniProt Q92769); assay: in vitro activity-based HDAC assay; type: biochemical; details: human HDAC isoform panel, Table 1
Chain of HDAC2 (Q92769 whole entry, canonical isoform): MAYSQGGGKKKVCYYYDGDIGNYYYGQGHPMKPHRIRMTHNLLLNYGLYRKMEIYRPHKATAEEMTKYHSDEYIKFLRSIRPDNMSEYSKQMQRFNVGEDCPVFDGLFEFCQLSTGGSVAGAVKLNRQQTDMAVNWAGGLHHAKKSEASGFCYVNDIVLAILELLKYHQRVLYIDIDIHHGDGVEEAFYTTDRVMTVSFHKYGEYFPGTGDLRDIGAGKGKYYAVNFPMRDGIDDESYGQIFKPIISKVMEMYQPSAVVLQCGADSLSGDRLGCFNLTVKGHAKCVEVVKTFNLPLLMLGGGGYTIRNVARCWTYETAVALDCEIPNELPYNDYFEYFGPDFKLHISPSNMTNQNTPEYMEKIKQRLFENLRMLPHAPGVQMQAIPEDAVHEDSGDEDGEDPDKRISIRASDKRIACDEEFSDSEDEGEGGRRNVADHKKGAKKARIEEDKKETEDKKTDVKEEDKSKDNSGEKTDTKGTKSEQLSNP

HDAC5 = HDAC5 (Homo sapiens, UniProt Q9UQL6); assay: in vitro activity-based HDAC assay; type: biochemical; details: human HDAC isoform panel, Table 1
Chain of HDAC5 (Q9UQL6 whole entry, canonical isoform): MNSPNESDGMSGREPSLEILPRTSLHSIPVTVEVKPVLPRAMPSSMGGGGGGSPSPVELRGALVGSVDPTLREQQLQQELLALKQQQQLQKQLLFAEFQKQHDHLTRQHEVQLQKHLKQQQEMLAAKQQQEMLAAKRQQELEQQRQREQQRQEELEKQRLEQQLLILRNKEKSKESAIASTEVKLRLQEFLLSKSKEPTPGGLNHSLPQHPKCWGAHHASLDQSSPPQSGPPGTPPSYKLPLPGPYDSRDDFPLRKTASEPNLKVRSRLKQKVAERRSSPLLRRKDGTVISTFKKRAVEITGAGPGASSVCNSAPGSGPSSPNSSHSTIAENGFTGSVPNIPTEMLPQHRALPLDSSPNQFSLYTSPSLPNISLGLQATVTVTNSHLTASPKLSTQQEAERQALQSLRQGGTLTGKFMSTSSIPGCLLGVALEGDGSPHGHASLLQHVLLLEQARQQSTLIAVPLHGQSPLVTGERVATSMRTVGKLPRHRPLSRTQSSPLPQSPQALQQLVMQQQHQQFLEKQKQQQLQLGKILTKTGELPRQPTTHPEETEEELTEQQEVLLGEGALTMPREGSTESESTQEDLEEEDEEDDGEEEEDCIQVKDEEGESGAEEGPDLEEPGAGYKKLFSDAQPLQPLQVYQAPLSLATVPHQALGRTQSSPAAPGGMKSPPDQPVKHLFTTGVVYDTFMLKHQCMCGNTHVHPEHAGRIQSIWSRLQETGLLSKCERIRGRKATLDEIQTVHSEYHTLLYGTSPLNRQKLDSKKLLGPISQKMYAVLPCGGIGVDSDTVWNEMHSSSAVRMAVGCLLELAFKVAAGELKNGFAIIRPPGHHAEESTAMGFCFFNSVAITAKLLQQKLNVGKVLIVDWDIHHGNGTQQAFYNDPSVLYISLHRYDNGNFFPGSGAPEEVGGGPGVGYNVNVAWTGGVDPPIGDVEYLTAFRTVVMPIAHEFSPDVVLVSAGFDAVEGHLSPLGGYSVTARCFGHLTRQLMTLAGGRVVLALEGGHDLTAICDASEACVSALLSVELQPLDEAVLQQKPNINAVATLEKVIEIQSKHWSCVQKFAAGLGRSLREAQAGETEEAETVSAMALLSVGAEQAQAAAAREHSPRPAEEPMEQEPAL

HDAC10 = target: T1, HDAC10 (Homo sapiens, UniProt Q969S8); assay: in vitro activity-based HDAC assay; type: biochemical; details: human HDAC isoform panel, Table 1
T1 sequence (Q969S8 1-669): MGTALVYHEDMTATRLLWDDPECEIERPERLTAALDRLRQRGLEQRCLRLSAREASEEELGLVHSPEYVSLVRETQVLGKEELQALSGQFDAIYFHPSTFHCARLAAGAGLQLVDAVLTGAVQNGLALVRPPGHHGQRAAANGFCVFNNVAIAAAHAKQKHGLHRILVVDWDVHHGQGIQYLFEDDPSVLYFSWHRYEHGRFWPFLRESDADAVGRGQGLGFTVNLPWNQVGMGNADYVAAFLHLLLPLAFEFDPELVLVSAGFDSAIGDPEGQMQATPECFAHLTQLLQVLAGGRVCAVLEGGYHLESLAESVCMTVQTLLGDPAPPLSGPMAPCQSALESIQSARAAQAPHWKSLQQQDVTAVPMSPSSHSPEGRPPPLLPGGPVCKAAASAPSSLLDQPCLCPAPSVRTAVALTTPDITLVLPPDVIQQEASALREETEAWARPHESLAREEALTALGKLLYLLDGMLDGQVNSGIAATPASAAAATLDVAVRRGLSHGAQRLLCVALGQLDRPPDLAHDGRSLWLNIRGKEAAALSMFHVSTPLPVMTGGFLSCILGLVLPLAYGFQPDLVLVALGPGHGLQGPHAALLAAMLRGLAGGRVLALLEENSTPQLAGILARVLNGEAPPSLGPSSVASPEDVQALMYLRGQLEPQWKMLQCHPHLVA

MV-4-11 = assay: Apoptosis induction by FACS (FITC-Annexin V / PI); type: cell-based; details: MV-4-11, increasing concentration of inhibitor
MRC9 = assay: Cytotoxicity in cell lines; type: cell-based; details: Table 4
Method: (§1) The cytotoxicity of exemplary compounds of the application was tested in multiple cell lines including MV-4-11, MOLM-13, MCF-7, MRC9, K562 and MM.1S. The therapeutic index was evaluated by determining the toxicity of the exemplary compounds in healthy cell lines including fibroblasts and HUVEC.

MOLM-13 = assay: Cytotoxicity in cell lines; type: cell-based; details: Homo sapiens, MOLM-13; Table 4; read-out: IC50 MOLM-13
Method: as §1

K562 = assay: Cytotoxicity in cell lines; type: cell-based; details: Homo sapiens, K562; Table 4; read-out: IC50 K562
Method: as §1

HDAC6 = target: T2, HDAC6 (Homo sapiens, UniProt Q9UBN7); assay: Enzyme kinetic parameters, time-based experiments; type: biochemical
T2 sequence (Q9UBN7 1-1215): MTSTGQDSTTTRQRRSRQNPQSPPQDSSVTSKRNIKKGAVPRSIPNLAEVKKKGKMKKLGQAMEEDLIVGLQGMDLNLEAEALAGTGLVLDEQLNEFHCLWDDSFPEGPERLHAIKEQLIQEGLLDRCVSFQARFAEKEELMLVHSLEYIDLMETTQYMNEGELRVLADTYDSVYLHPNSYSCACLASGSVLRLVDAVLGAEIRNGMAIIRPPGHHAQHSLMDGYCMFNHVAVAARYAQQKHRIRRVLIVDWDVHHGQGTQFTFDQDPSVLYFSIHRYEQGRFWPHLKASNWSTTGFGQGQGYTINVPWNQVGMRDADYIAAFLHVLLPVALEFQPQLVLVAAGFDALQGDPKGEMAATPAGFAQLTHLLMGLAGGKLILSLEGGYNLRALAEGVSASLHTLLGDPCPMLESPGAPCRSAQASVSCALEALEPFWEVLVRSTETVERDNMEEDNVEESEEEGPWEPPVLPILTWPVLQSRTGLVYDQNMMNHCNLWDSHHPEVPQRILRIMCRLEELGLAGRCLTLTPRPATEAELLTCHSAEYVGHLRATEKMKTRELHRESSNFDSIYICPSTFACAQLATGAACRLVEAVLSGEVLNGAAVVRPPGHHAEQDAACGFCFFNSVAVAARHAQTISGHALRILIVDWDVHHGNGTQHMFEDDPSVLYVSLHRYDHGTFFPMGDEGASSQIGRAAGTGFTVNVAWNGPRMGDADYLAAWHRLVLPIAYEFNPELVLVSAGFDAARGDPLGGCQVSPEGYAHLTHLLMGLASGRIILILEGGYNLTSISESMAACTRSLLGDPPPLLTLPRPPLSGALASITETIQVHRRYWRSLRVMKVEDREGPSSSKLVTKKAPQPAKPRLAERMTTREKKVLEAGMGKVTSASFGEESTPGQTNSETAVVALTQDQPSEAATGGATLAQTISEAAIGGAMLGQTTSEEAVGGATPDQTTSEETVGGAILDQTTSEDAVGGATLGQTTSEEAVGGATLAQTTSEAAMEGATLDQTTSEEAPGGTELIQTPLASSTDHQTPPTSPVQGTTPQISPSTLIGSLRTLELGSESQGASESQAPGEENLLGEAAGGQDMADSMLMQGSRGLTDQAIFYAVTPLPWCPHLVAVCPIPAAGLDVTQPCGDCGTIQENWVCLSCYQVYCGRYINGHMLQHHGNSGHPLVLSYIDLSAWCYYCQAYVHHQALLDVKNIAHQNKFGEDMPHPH
Method: To determine the kinetic parameters for the formation and maintenance of the HDAC6:1-18 complex, several time-based experiments were performed, which are shown in Table 2.

HDAC3 = HDAC3 (Homo sapiens, UniProt O15379); assay: in vitro activity-based HDAC assay; type: biochemical; details: human HDAC isoform panel, Table 1
Chain of HDAC3 (O15379 whole entry, canonical isoform): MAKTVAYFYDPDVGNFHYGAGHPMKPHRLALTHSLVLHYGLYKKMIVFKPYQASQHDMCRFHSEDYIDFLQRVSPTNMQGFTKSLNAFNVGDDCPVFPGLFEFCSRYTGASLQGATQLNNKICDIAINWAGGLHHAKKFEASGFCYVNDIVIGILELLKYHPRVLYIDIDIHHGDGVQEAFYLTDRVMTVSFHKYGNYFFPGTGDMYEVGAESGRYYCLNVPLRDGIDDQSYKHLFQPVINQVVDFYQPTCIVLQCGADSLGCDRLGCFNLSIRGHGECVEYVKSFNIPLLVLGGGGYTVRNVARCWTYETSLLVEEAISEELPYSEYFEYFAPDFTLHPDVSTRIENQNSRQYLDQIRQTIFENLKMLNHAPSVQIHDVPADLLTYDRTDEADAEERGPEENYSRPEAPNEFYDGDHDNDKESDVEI
Chain of HDAC3 (Q9Y618 395-489 partner limits assumed): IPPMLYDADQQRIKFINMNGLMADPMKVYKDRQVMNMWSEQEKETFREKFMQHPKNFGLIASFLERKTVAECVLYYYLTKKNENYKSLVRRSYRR

IC50 (HDAC1) [µM]	Compound	solubility kinetic [1] [µM]	IC50 (HDAC9) [µM]	IC50 (HDAC2) [µM]	IC50 (HDAC5) [µM]	IC50 (HDAC10) [µM]	apoptotic-inducting potential (FACS) (MV-4-11)	IC50 (MRC9) [µM]	IC50 (MOLM-13) [µM]	IC50 (K562) [µM]	Ki (HDAC6; HDAC6) [µM]	IC50 (HDAC6; HDAC6, no preincubation) [µM]	IC50 (HDAC3) [µM]
> 1	O=C(NO)c1ccc(CN(C2CC2)S(=O)(=O)c2cc(F)c(F)c(F)c2F)cc1 [Compound I-13, 4-((N-cyclopropyl-2,3,4,5-tetrafluorophenylsulfonamido)methyl)-N-hydroxybenzamide]	88.1 ± 1.6	> 1	> 1	> 1	> 1	larger populations of cells undergoing early apoptosis	> 50	2	7.4	–	–	–
–	O=C(NO)c1ccc(CN(Cc2cccnc2)S(=O)(=O)c2cc(F)c(F)c(F)c2F)cc1 [Compound I-18, N-hydroxy-4-((2,3,4,5-tetrafluoro-N-(pyridin-3-ylmethyl)phenylsulfonamido)methyl)benzamide]	142 ± 2.4	> 1	> 1	> 1	0.551	larger populations of cells undergoing early apoptosis	–	–	–	0.0014	0.004	0.373
